# Assay results published in the METLIN SMRT retention time set (Domingo-Almenara et al. 2019).
# Assay: gradient 5% acetonitrile 3 min, to 50% in 2 min, to 85% in 15 min, held 3 min, 100 µL/min
# Settings: column: Zorbax Extend-C18 2.1 x 50 mm; eluents: water / acetonitrile, 0.1% formic acid
# Method in brief: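 Values are retention times taken from adduct peaks that software picked and an analyst inspected. The pure standards were run as mixtures of ~100 molecules on HPLC linked to a quadrupole time-of-flight mass spectrometer, in positive and negative ionization mode. A Zorbax Extend-C18 column (2.1 × 50 mm, 1.8 μm) was used at 100 μL/min with water and acetonitrile, each including 0.1% formic acid.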
row,SMILES,RP-LC retention time
1,CCN(CC)C(=O)c1ccc(-c2nc3cc(NS(=O)(=O)c4ccc(C)c(C)c4)ccc3n2C)cc1,726 s
2,Cc1cccc(CN2CCCn3nc(C(=O)NC4CCCC4)cc3C2=O)c1,879 s
3,Cc1ccc(-c2noc(C3CCCN3C(=O)C3CCN(S(=O)(=O)c4ccc(C)cc4)CC3)n2)cc1 (stereo not given),1080 s
4,Cc1nnc(CNC(=O)Cc2csc(Nc3ncccn3)n2)o1,560 s
5,CCCS(=O)(=O)N1CCC(N2C(=O)[C@H](OC)[C@@H]2c2ccncc2)CC1,700 s
6,Cc1ccc(CN2C(=O)CN(S(C)(=O)=O)CC2(C)C(=O)NCc2ccc(Cl)cc2)cc1 (stereo not given),906 s
7,COc1ccc(N2C=C(C(=O)N3CCOCC3)S(=O)(=O)c3ccc(Cl)cc32)cc1,770 s
8,CCc1nnc(NC(=O)c2ccc(N3C(=O)CCC3=O)cc2)s1,627 s
9,Cc1ccc(Nc2c(-c3cc(Br)ccc3F)nc3ccccn23)cc1,801 s
10,CC(C)Cn1cc(S(=O)(=O)Nc2ccc(F)cc2F)c2cccnc21,944 s
11,O=S(=O)(c1ccc(C(F)(F)F)cc1)N1CCCC(Cn2cnc3cccnc32)C1 (stereo not given),831 s
12,CCc1nccn1Cc1nc(-c2cc(OC)c(OC)c(OC)c2)no1,621 s
13,O=C(CC1CCCC1)N1CCCCC1c1nncn1CC1CC1 (stereo not given),781 s
14,Cc1cc2nn(CC(=O)Nc3cc(F)cc(F)c3)c(=O)n2c(Nc2ccccc2)n1,1040 s
15,O=C1CCC2(CNC(=O)c3n[nH]c(=O)c4ccccc34)CCCC=C2N1 (stereo not given),634 s
16,Cc1nc2ncnn2c(N2CCCC2)c1C,648 s
17,COc1ccc(-c2csc3c(=O)n(CC(C)C)cnc23)cc1,1020 s
18,O=C(Nc1cccc(Cl)c1)C(=O)c1cn(CC(=O)N2CCCC2)c2ccccc12,1020 s
19,COCc1nnc(NC(=O)C2CCN(C(=O)c3ccccc3Cl)CC2)s1,670 s
20,Cc1nnc(-c2ccc3ccn(CC(=O)N4CCN(C(=O)c5ccco5)CC4)c3c2)o1,674 s
21,COc1ccc(-c2ncc3c(n2)CCN(S(=O)(=O)c2cccs2)C3)cc1,997 s
22,Cc1cc(C)cc(NC(=O)N2CCCC(C)(C(=O)NCc3ccccc3C)C2)c1 (stereo not given),897 s
23,COc1ccc2c(c1)C1(CCN(S(=O)(=O)c3ccc(F)c(C)c3)C1)C(=O)N2 (stereo not given),874 s

row,SMILES,RP-LC retention time
1,Cc1ccc(S(=O)(=O)N2CC(F)(F)C[C@H]2CN2CCc3ccccc3C2)cc1,766 s
2,Cc1nc2nc(-c3ccc(C(C)(C)C)cc3)nn2c(C)c1CC(=O)N1CCCC1,900 s
3,CCOc1ccc(OCC)c(NC(=O)CSc2nccnc2Oc2ccccc2)c1,1190 s
4,CCn1c(=O)sc2cc(S(=O)(=O)N3CCC(C(=O)N4CCCCC4)CC3)ccc21,845 s
5,Cc1ccc(CS(=O)(=O)N2CCc3nc(-c4ccc(F)cc4)ncc3C2)cc1,1110 s
6,COc1ccc(C(=O)N(Cc2cc(OC)c(OC)c(OC)c2)C2CCS(=O)(=O)C2)cc1 (stereo not given),749 s
7,CC(C)CC(=O)N1CC[C@@H]2COCCN(C)[C@@H]2C1,575 s
8,O=C(NCc1cccs1)c1ccc(Cn2ccnc2)cc1,809 s
9,Cn1nc(CNC(=O)c2ccccc2Br)c2ccccc21,757 s
10,CCNC(=O)C1CCCN(c2nc3ncn(CC(=O)NC4CCCC4)c(=O)c3s2)C1 (stereo not given),637 s
11,Cn1c(=O)sc2cc(S(=O)(=O)N3CCC(C(=O)NC4CC4)CC3)ccc21,670 s
12,CCOc1ccccc1C1CC(=O)NC(SCC(=O)Nc2nccs2)=C1C#N (stereo not given),734 s
13,COCCNC(=O)c1csc(N2CCN(c3cccc(OC)c3)CC2)n1,855 s
14,O=C(Cn1cccc1-c1nnc(-c2ccccc2)o1)NCc1ccc2c(c1)OCO2,860 s
15,C[C@@H]1CN(C(=O)NCc2ccco2)C[C@H]1c1nc(-c2ccncc2)no1,676 s
16,COc1cc(NC(=O)N2CCC(CC(=O)N3CCN(c4ccccn4)CC3)CC2)cc(OC)c1OC,576 s
17,Cn1ncc(Cl)c1C(=O)N1CCCC1c1ccc(F)cc1 (stereo not given),825 s
18,CC1CCN(c2ncc3c(n2)CCC(C(=O)NCc2ccc(OC(C)C)cc2)C3)CC1 (stereo not given),908 s
19,Cc1nc(-c2csc(S(=O)(=O)N3CCC(C(=O)N4CCOCC4)CC3)c2)no1,719 s
20,CCN(CC)c1ccc(CNC(=O)C2CCc3nc(N4CCCCC4)ncc3C2)cc1 (stereo not given),546 s
21,O=C(NC1(c2nc(-c3ccccc3)no2)CCCCC1)c1cccc(Cl)c1,1230 s
22,CCOC(=O)Cn1c(CN(C)Cc2ccccc2)nc2c1c(=O)n(C)c(=O)n2C,643 s
23,Cc1nn(-c2ccc(Nc3ccc(NC(=O)c4ccccc4F)cc3)nn2)c(C)c1C,802 s

row,SMILES,RP-LC retention time
1,CCC1Oc2ccc(S(=O)(=O)N3CCC(C(=O)NCc4ccccc4C)CC3)cc2NC1=O (stereo not given),872 s
2,O=C(Nc1ccccc1)N1CCC(Oc2ccccc2)C1 (stereo not given),872 s
3,CCOc1ccc2ncc(C#N)c(N3CCC(C(=O)Nc4ccccc4OCC)CC3)c2c1,984 s
4,O=C(Cc1nnc(-c2cccc(F)c2)o1)Nc1ccccc1,808 s
5,CCOC(=O)c1cnc(N2CCN(c3ccc(F)cc3)CC2)c2ccccc12,1270 s
6,CCc1nc(OCC(=O)Nc2ccccc2F)c2ccccc2n1,775 s
7,Cn1ncc(NC(=O)c2ccc(Cl)cc2)c(N2CCOCC2)c1=O,771 s
8,CC1CN(Cc2nc3c(c(=O)n(C)c(=O)n3C)n2CC(=O)c2ccccc2)CC(C)O1 (stereo not given),624 s
9,Cn1c(=O)cc(SCC(=O)N2CCN(c3ccccn3)CC2)c2ccc(Cl)cc21,639 s
10,O=C(O)C1CCN(c2ncnc3nc[nH]c23)CC1,548 s
11,CN(C)CCC1c2ccc(Cl)cc2CCc2cccnc21 (stereo not given),666 s
12,O=C(COc1ccccc1)Nc1cnc(N2CCCCCC2)nc1,941 s
13,CN(C1CCc2nn(CC3CC3)c(=O)n2CC1)S(=O)(=O)c1ccccc1Cl (stereo not given),796 s
14,O=c1n(Cc2ccccc2F)nc2c(S(=O)(=O)N3CCN(c4ccc(F)cc4)CC3)cccn12,969 s
15,O=C(NCc1ccco1)C1CCCN(c2nnc3c(Cl)cccn23)C1 (stereo not given),627 s
16,Cn1c(SCC(N)=O)nnc1-c1sc2cc(Cl)ccc2c1Cl,702 s
17,O=C(Cc1cccc2ccccc12)Nc1c(-c2ccccc2)nc2ccccn12,708 s
18,Cc1ccc(C)c2c(=O)c3c([nH]c12)CCN(CC(=O)Nc1ccccc1Cl)C3,656 s
19,CS(=O)(=O)c1ccc(CC(=O)N2CC(Cc3nncn3CC3CC3)C2)cc1,592 s
20,COc1cc2c(cc1OC)C(COc1cccc(C(F)(F)F)c1)NCC2 (stereo not given),586 s
21,Cn1c(=O)c2cc(C(=O)NCc3ccccc3Cl)sc2n(C)c1=O,795 s
22,O=C(CCCc1nnc2c(=O)n(-c3ccc(Cl)cc3)ccn12)N1CCN(c2ccccn2)CC1,595 s
23,Cc1nc(NC(=O)Cn2nc3c(cc2=O)CCCC3)sc1C,721 s

row,SMILES,RP-LC retention time
1,Cn1c(=O)n(C)c2cc(N3CCCC3)c(NC(=O)Cc3ccccc3)cc21,670 s
2,COc1ccc(CNC(=O)C2(C)CCN(C(=O)Nc3cc(OC)c(OC)c(OC)c3)CC2)cc1,733 s
3,Cc1cccc(N2CCN(c3cc(-c4ccccc4)nc4c(-c5ccccc5)cnn34)CC2)n1,1010 s
4,c1cn(-c2cc(NC3CCCC3)ncn2)cn1,613 s
5,Nc1nc(N2CCN(c3ccccn3)CC2)ncc1C(=O)Nc1ccccc1,585 s
6,O=C(Nc1ccccc1)C1CCCN(S(=O)(=O)Cc2ccccc2)C1 (stereo not given),940 s
7,O=C1c2ccccc2C(O)(c2ccccc2)N1c1ccncc1 (stereo not given),702 s
8,COc1ccc(-c2noc(C3CCCN3C(=O)c3ccc4c(c3)OCO4)n2)cc1OC (stereo not given),836 s
9,CC1CN(CC(=O)N2CCN(c3ccccn3)CC2)c2ccccc2S1 (stereo not given),683 s
10,O=C(NC1CCCC1)c1c2c(nc3ccc(F)cc13)CCC2,750 s
11,COc1ccc(-n2ccc(=O)c(-c3nc(-c4ccc(F)c(Cl)c4)no3)n2)cc1,966 s
12,O=S(=O)(NCc1nc(-c2ccc(-c3csc(C4CC4)n3)cc2)no1)c1ccc(Cl)cc1,1190 s
13,COc1ccc(C)cc1NC(=O)Cn1nc2cc(-c3ccccn3)nc(C)n2c1=O,804 s
14,COc1ccccc1Nc1c(-c2ccc(C(=O)O)cc2)nc2cnccn12,730 s
15,O=C1CN(Cc2ccccc2)C(=O)C(Cc2ccccc2)N1 (stereo not given),656 s
16,CCSc1nnc(NC(=O)Cc2csc(NC(=O)c3ccc4c(c3)OCO4)n2)s1,804 s
17,O=C(CN1CCCc2nc(C3CC3)ncc2C1=O)NC1CCCCC1,723 s
18,C=CCN1C(=O)COc2ccc(-c3csc(NC(=O)C(C)C)n3)cc21,895 s
19,CN(C(=O)CN1CCCn2nc(C(=O)O)cc2C1=O)c1ccccc1,627 s
20,CC1=NS(=O)(=O)N(C)C=C1C(=O)OCc1ccc(Cl)cc1,978 s
21,COc1ccc(-c2nc3cnc(Br)cn3c2Nc2ccc3c(c2)OCCO3)cc1,900 s
